Measured values from article PMC9967275, “Screening the Pathogen Box to Discover and Characterize New Cruzain and TbrCatL Inhibitors” (Pathogens, 2023).
Where two headings read alike, the source gives them in different places.

Experiments:
TbrCatL = target: T1, TbrCatL (Trypanosoma brucei rhodesiense, UniProt Q95PM0); assay: TbrCatL enzymatic inhibition assay (cleavage of fluorogenic substrate Z-FR-AMC); format: biochemical; conditions: for TbrCatL Inhibition 0’: 0’ (no pre-incubation); for TbrCatL Inhibition 0’ / TbrCatL Inhibition 10’: sheet Screening results; for TbrCatL Inhibition 10’: 10’ (pre-incubation); for TbrCatL 0’ Inhibition: 0’ (pre-incubation time); for TbrCatL 0’ Inhibition / TbrCatL 10’ Inhibition: sheet "Screening results"; for TbrCatL 10’ Inhibition: 10’ (pre-incubation time); for Increase in the initial velocity of the reaction (%) 5 µM using PB samples TbrCatL: PB library solutions, 10 min pre-incubation, vs DMSO control; for Increase in initial velocity of substrate cleavage in comparison to the DMSO control: TbrCatL 10′ inc, screening at 5 µM
T1 construct: Conor Caffrey (University of California San Diego)
Method in brief: (§1)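 Recombinant enzymes assayed by Z-Phe-Arg-AMC cleavage at 25 °C, fluorescence 340/440 nm over 5–7 min, with 10 min or no enzyme–compound preincubation.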

cruzain = cruzain (Trypanosoma cruzi, UniProt P25779); assay: biochemical; conditions: for Cruzain Inhibition 0’: 0’ (no pre-incubation); for Cruzain Inhibition 0’ / Cruzain Inhibition 10’: sheet Screening results; for Cruzain Inhibition 10’: 10’ (pre-incubation); for Cruzain 0’ Inhibition: 0’ (pre-incubation time); for Cruzain 10’ Inhibition: 10’ (pre-incubation time); for Increase in the initial velocity of the reaction (%) 5 µM using PB samples Cruzain: PB library solutions; for Increase in the initial velocity of the reaction (%) 5 µM using PB samples Cruzain / Increase in the initial velocity of the reaction (%) 5 µM using solid samples Cruzain / Increase in the initial velocity of the reaction (%) 100 µM using solid samples Cruzain: 10 min pre-incubation, vs DMSO control; for Increase in the initial velocity of the reaction (%) 5 µM using solid samples Cruzain / Increase in the initial velocity of the reaction (%) 100 µM using solid samples Cruzain / Increase in the enzyme velocity in confirmatory assays: solid samples; for Increase in the enzyme velocity in confirmatory assays: varying compound concentrations
Method in brief: as §1

[1] = read-out: Inhibition at 5 µM (Mean ± SEM %) TbrCatL 0′
[2] = read-out: Inhibition at 5 µM (Mean ± SEM %) TbrCatL 10′ inc
[3] = read-out: TbrCatL 0’ Inhibition
[4] = read-out: TbrCatL 10’ Inhibition
[5] = read-out: Cruzain 0’ Inhibition, 0’ (pre-incubation time), sheet "Screening results"
[6] = read-out: Cruzain 10’ Inhibition, 10’ (pre-incubation time), sheet "Screening results"
[7] = read-out: Inhibition at 5 µM (Mean ± SEM %) Cruzain 0′, 5 µM, no pre-incubation, initial screening
[8] = read-out: Inhibition at 5 µM (Mean ± SEM %) Cruzain 10′ inc, 5 µM, 10′ pre-incubation, initial screening
[9] = read-out: Inhibition of cruzain or TbrCatL (either enzyme) in the initial screening, 5 µM, either cruzain or TbrCatL, with or without pre-incubation

Chain of cruzain (P25779 123-337 limits assumed): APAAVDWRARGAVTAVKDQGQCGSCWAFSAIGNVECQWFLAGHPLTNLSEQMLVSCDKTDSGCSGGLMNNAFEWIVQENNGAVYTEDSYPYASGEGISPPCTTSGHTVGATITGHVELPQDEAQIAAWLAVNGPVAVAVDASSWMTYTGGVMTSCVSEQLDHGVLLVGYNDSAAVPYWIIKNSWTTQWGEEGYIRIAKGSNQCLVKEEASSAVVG
T1 sequence (Q95PM0 entry or part of it): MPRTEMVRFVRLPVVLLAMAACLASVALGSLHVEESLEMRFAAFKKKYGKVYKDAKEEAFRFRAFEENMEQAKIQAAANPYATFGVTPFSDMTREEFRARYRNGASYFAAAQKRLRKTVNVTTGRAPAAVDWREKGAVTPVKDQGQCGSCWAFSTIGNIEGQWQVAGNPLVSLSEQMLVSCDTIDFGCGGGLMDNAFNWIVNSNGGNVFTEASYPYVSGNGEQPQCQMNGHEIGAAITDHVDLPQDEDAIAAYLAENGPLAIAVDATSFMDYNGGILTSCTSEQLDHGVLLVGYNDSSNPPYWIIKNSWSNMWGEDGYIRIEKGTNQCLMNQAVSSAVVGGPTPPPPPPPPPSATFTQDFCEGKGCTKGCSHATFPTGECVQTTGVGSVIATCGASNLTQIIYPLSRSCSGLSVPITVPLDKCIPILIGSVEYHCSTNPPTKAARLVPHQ

Structure (SMILES)	TbrCatL Inhibition 0’ (TbrCatL)	TbrCatL Inhibition 10’ (TbrCatL)	Cruzain Inhibition 0’ (cruzain)	Cruzain Inhibition 10’ (cruzain)	TbrCatL 0’ Inhibition (TbrCatL)	TbrCatL 10’ Inhibition (TbrCatL)	Cruzain 0’ Inhibition (cruzain; sheet "Screening results")	Cruzain 10’ Inhibition (cruzain; sheet "Screening results")	other results
c1ccc(C[C@@H]2CN(c3nccc(Oc4ccc(-n5ccnc5)cc4)n3)CCN2)cc1 [MMV687749]	6.4%	5.6%	14%	13%	–	–	–	–	–
CCN(CC)S(=O)(=O)c1ccc(Cl)c(C(=O)Nc2ccc3nc(C)sc3c2)c1 [MMV019721]	5%	-2.6%	6.4%	6.4%	–	–	–	–	–
O=C(C1CCN(c2nnnn2-c2ccccc2)CC1)N1CCc2ccccc2C1 [MMV009135]	–	–	–	–	-1.2%	6%	0.1%	0.1%	–
O=C(Nc1nc(-c2ccccn2)cs1)c1cncn1-c1ccccc1 [MMV676512]	-27%	-109%	-27%	-84%	–	–	–	–	Increase in the initial velocity of the reaction (%) 5 µM using PB samples TbrCatL (TbrCatL): 109 ± 71%; Increase in initial velocity of substrate cleavage in comparison to the DMSO control (TbrCatL): 2 fold; Increase in the initial velocity of the reaction (%) 5 µM using PB samples Cruzain (cruzain): 84 ± 54%; Increase in the initial velocity of the reaction (%) 5 µM using solid samples Cruzain (cruzain): 14 ± 9%; Increase in the initial velocity of the reaction (%) 100 µM using solid samples Cruzain (cruzain): 24 ± 5%; Increase in the enzyme velocity in confirmatory assays (cruzain): no increase in the enzyme velocity
N#Cc1ccc(-c2cnc(N)c(-c3ccc(C(N)=O)cc3)n2)cc1 [MMV085499]	–	–	–	–	–	–	–	–	inhibition at 5 µM (TbrCatL; [1]): 12 ± 8%; inhibition at 5 µM (TbrCatL; [2]): 46 ± 5%; inhibition at 100 µM (TbrCatL; read-out: Inhibition at 100 µM (Mean ± SEM %) TbrCatL 0′): 26 ± 18%; inhibition at 100 µM (TbrCatL; read-out: Inhibition at 100 µM (Mean ± SEM %) TbrCatL 10′ inc): 0%; inhibition at 5 µM (TbrCatL; [3]): 9%; inhibition at 5 µM (TbrCatL; [4]): 46%; inhibition at 5 µM (cruzain; [5]): 0.5%; inhibition at 5 µM (cruzain; [6]): 25%; inhibition at 5 µM (cruzain; [7]): 2 ± 3%; inhibition at 5 µM (cruzain; [8]): 25 ± 4%; inhibition at 100 µM (cruzain; read-out: Inhibition at 100 µM (Mean ± SEM %) Cruzain 0′, 100 µM, no pre-incubation, solid samples): 0%; inhibition at 100 µM (cruzain; read-out: Inhibition at 100 µM (Mean ± SEM %) Cruzain 10′ inc, 100 µM, 10′ pre-incubation, solid samples): 0%; inhibition at 5 µM (cruzain; [9]): ≥ 40%
COC(=O)c1cccc2oc(-c3cccc(OC)c3NC(=O)c3cc(-c4ccccc4)on3)nc12 [MMV676186]	–	–	–	–	-3.7%	-5%	-3.5%	5.3%	–
Cc1cccnc1NC(=O)c1cccc(OCc2c(C)noc2C)c1 [MMV688793]	14%	10%	16%	10%	–	–	–	–	–
CC1COC(Cn2cncn2)(c2ccc(Oc3ccc(Cl)cc3)cc2Cl)O1 (centres unmarked) [MMV688943]	15%	4%	13%	10%	–	–	–	–	–
O=C(COc1cccc(F)c1)Nc1nc(-c2ccccn2)cs1 [MMV676409]	-77%	–	-227%	–	–	–	–	–	Increase in the initial velocity of the reaction (%) 5 µM using PB samples TbrCatL (TbrCatL): 772 ± 382%; Increase in initial velocity of substrate cleavage in comparison to the DMSO control (TbrCatL): up to 8 fold; Increase in the initial velocity of the reaction (%) 5 µM using PB samples Cruzain (cruzain): 510 ± 216%; Increase in the initial velocity of the reaction (%) 5 µM using solid samples Cruzain (cruzain): -4 ± 2%; Increase in the initial velocity of the reaction (%) 100 µM using solid samples Cruzain (cruzain): 0 ± 6%; Increase in the enzyme velocity in confirmatory assays (cruzain): no increase in the enzyme velocity
Cc1cc(Cl)c(S(=O)(=O)N2CCCC2)cc1OCC(=O)NC1CCCCC1 [MMV006833]	–	–	–	–	1.6%	11%	3%	8%	–
CCOc1ccc(OCC(=O)Nc2cc(C)cc(C)c2)cc1 [MMV676470]	–	–	–	–	-0.9%	4%	6%	9%	–
Cc1[nH]c2ccccc2c1C(c1cccs1)N1CCN(C)CC1 (centres unmarked) [MMV688768]	0.9%	2.4%	2.7%	9%	–	–	–	–	–
Clc1ccc(CCNc2cc(-c3ccccc3)nc3ncnn23)cc1 [MMV688889]	20%	13%	15%	14%	–	–	–	–	–
O=C(C(Cc1c[nH]c2ccccc12)NS(=O)(=O)c1ccc(Cl)cc1)N1CCCCC1 (centres unmarked) [MMV085210]	11%	8%	4.5%	6.5%	–	–	–	–	–
N=C(N)Nc1ccc(-c2ccc(-c3ccc(NC(=N)N)c(Cl)c3)o2)cc1Cl [MMV688271]	–	–	–	–	–	–	–	–	inhibition at 5 µM (TbrCatL; [1]): 53 ± 5%; inhibition at 5 µM (TbrCatL; [2]): 43 ± 1%; inhibition at 5 µM (TbrCatL; [3]): 53%; inhibition at 5 µM (TbrCatL; [4]): 43%; inhibition at 5 µM (cruzain; [5]): 83%; inhibition at 5 µM (cruzain; [6]): 50%; inhibition at 5 µM (cruzain; [7]): 83 ± 10%; inhibition at 5 µM (cruzain; [8]): 50 ± 4%; inhibition at 5 µM (cruzain; [9]): ≥ 60%
COc1ccc(C2=NCCN2)cc1-c1cn(-c2cccc(C3=NCCN3)c2)nn1 [MMV688547]	6%	4%	10%	13%	–	–	–	–	–
Cc1ccc(-c2nc(CN(Cc3ccccn3)C(C)C)cs2)o1 [MMV1088520]	–	–	–	–	-6%	-24%	-17%	-15%	–
CC1CC1C(=O)NC1CCN(CC2(c3ccccc3)CCCCC2)CC1 (centres unmarked) [MMV020120]	-2.3%	3.8%	1.3%	-0.5%	–	–	–	–	–
CC(C)c1ncc(-c2ccncc2)c(C2CCC(CNC(=O)c3cccnc3)CC2)n1 (centres unmarked) [MMV676442]	-7.5%	-6%	4%	1.2%	–	–	–	–	–
CCN(CC)CCCCCCNc1cc(OC)cc2c(C)ccnc12 [MMV000063]	2.7%	5.6%	16%	3%	–	–	–	–	–
O=C(Nc1cccc(-c2ccc(NCCCN3CCCC3)nc2)c1)c1ccccc1 [MMV023953]	–	–	–	–	12%	7%	8%	11%	–
CCC(NC(=O)c1ccccc1NC(=O)c1ccc(C)cc1)C(=O)OC (centres unmarked) [MMV019551]	–	–	–	–	-0.4%	3.2%	-0.5%	1.2%	–
O=C(Nc1nnc(-c2ccc(Cl)cc2)o1)c1cccc(C(F)(F)F)c1 [MMV102872]	0.5%	-16%	-1.6%	-10%	–	–	–	–	–
COc1cc(Br)cc2cc(C(=O)Nc3cccc(C(F)(F)F)c3)c(=O)oc12 [MMV688891]	–	–	–	–	0%	-2.6%	-4.4%	-0.7%	–
O=C(NC1CCN(c2ccnc3ccccc23)C1)c1cccc(C(F)(F)F)c1 (centres unmarked) [MMV023388]	–	–	–	–	10%	13%	8%	14%	–
Nc1ncc(Br)cc1-c1nc2cc(Cl)cnc2[nH]1 [MMV676358]	–	–	–	–	-9%	-2.5%	-2.8%	8%	–
